Laboratory results published in paper PMC7162861, “Synthesis, cytotoxicity, pharmacokinetic profile, binding with DNA and BSA of new imidazo[1,2-a]pyrazine-benzo[d]imidazol-5-yl hybrids” (Scientific Reports, 2020).

Legend:
Assay type in all cases: cell-based
[1] = tested on: K-562; assay: NCI cytotoxicity screen, Leukemia panel; settings: Homo sapiens, K562; K-562; single dose 10 µM; negative = lethal; read-out: Percent growth inhibition
Method: (§1) Cytotoxicity was performed at National Cancer Institute (NCI), Bethesda, USA as per their protocols.

[2] = tested on: RPMI-8226; assay: NCI cytotoxicity screen, Leukemia panel; settings: Homo sapiens; RPMI-8226; single dose 10 µM; negative = lethal; read-out: Percent growth inhibition
Method: as §1

[3] = tested on: COLO 205; assay: NCI cytotoxicity screen, Colon Cancer panel; settings: Homo sapiens, single dose 10 µM, negative = lethal, read-out: Percent growth inhibition
Method: as §1

[4] = tested on: HCT-116; assay: NCI cytotoxicity screen, Colon Cancer panel; settings: Homo sapiens, single dose 10 µM, negative = lethal, read-out: Percent growth inhibition
Method: as §1

[5] = tested on: HCT-15; assay: NCI cytotoxicity screen, Colon Cancer panel; settings: Homo sapiens, single dose 10 µM, negative = lethal, read-out: Percent growth inhibition
Method: as §1

[6] = tested on: HT29; assay: NCI cytotoxicity screen, Colon Cancer panel; settings: Homo sapiens, HT-29; HT29; single dose 10 µM; negative = lethal; read-out: Percent growth inhibition
Method: as §1

[7] = tested on: SF-268; assay: NCI cytotoxicity screen, CNS Cancer panel; settings: Homo sapiens, single dose 10 µM, negative = lethal, read-out: Percent growth inhibition
Method: as §1

[8] = tested on: SF-295; assay: NCI cytotoxicity screen, CNS Cancer panel; settings: Homo sapiens, single dose 10 µM, negative = lethal, read-out: Percent growth inhibition
Method: as §1

[9] = tested on: SF-539; assay: NCI cytotoxicity screen, CNS Cancer panel; settings: Homo sapiens, single dose 10 µM, negative = lethal, read-out: Percent growth inhibition
Method: as §1

[10] = tested on: SNB-19; assay: NCI cytotoxicity screen, CNS Cancer panel; settings: Homo sapiens; SNB-19; single dose 10 µM; negative = lethal; read-out: Percent growth inhibition
Method: as §1

[11] = tested on: SNB-75; assay: NCI cytotoxicity screen, CNS Cancer panel; settings: Homo sapiens, single dose 10 µM, negative = lethal, read-out: Percent growth inhibition
Method: as §1

[12] = tested on: U251; assay: NCI cytotoxicity screen, CNS Cancer panel; settings: Homo sapiens, U-251; U251; single dose 10 µM; negative = lethal; read-out: Percent growth inhibition
Method: as §1

[13] = tested on: MALME-3M; assay: NCI cytotoxicity screen, Melanoma panel; settings: Homo sapiens; MALME-3M; single dose 10 µM; negative = lethal; read-out: Percent growth inhibition
Method: as §1

[14] = tested on: MDA-MB-435; assay: NCI cytotoxicity screen, Melanoma panel; settings: Homo sapiens, MDA-MB-435, read-out: Percent growth inhibition
Method: as §1

[15] = tested on: SK-MEL-28; assay: NCI cytotoxicity screen, Melanoma panel; settings: Homo sapiens, single dose 10 µM, negative = lethal, read-out: Percent growth inhibition
Method: as §1

[16] = tested on: SK-MEL-2; assay: NCI cytotoxicity screen, Melanoma panel; settings: Homo sapiens, single dose 10 µM, negative = lethal, read-out: Percent growth inhibition
Method: as §1

[17] = tested on: SK-MEL-5; assay: NCI cytotoxicity screen, Melanoma panel; settings: Homo sapiens, single dose 10 µM, negative = lethal, read-out: Percent growth inhibition
Method: as §1

[18] = tested on: UACC-257; assay: NCI cytotoxicity screen, Melanoma panel; settings: Homo sapiens, single dose 10 µM, negative = lethal, read-out: Percent growth inhibition
Method: as §1

c1ccc(-c2cn3ccnc3c(-c3ccc4c(c3)ncn4C3CCCCC3)n2)cc1 [Compound 9, 8-(1-cyclohexyl-1H-benzo[d]imidazol-5-yl)-6-phenylimidazo[1,2-a]pyrazine] showed an inhibition at 10 µM [1] of 31.1%, an inhibition at 10 µM [2] of 18.3% and an inhibition at 10 µM [3] of 0.28%. It also gave an inhibition at 10 µM [4] of 3.81%, an inhibition at 10 µM [5] of 19.1% and an inhibition at 10 µM [6] of 9.21%. The inhibition at 10 µM [7] was 1.33%, the inhibition at 10 µM [8] was less than 1% and the inhibition at 10 µM [9] was 2.17%. The inhibition at 10 µM [10] was 1.72%, the inhibition at 10 µM [11] was 5.65% and the inhibition at 10 µM [12] was 4.44%. The inhibition at 10 µM [13] was less than 1%, the inhibition at 10 µM [14] was 0.53% and the inhibition at 10 µM [15] was less than 1%. For the same molecule, the inhibition at 10 µM [16] was less than 1%, the inhibition at 10 µM [17] was 5.71% and the inhibition at 10 µM [18] was less than 1%.

Molecule COc1ccc(-c2cn3ccnc3c(-c3ccc4c(c3)ncn4C3CCCCC3)n2)cc1 [Compound 10, 8-(1-cyclohexyl-1H-benzo[d]imidazol-5-yl)-6-(4-methoxyphenyl)imidazo[1,2-a]pyrazine] has an inhibition at 10 µM [1] of 29.2%, an inhibition at 10 µM [2] of 14.7% and an inhibition at 10 µM [3] of less than 1%. For the same molecule, the inhibition at 10 µM [4] was 18.6%, the inhibition at 10 µM [5] was 11.9% and the inhibition at 10 µM [6] was less than 1%. For the same molecule, the inhibition at 10 µM [7] was 3.96%, the inhibition at 10 µM [8] was 12.5% and the inhibition at 10 µM [9] was 9.71%. The inhibition at 10 µM [10] was 4.26%, the inhibition at 10 µM [11] was 15.9% and the inhibition at 10 µM [12] was 3.4%. It also gave an inhibition at 10 µM [13] of less than 1%, an inhibition at 10 µM [14] of 6.92% and an inhibition at 10 µM [15] of 4.86%. The inhibition at 10 µM [16] was 9.88%, the inhibition at 10 µM [17] was 5.95% and the inhibition at 10 µM [18] was less than 1%.

Molecule c1ccc2c(-c3cn4ccnc4c(-c4ccc5c(c4)ncn5C4CCCCC4)n3)cccc2c1 [Compound 12, 8-(1-cyclohexyl-1H-benzo[d]imidazol-5-yl)-6-(naphthalen-1-yl)imidazo[1,2-a]pyrazine] has an inhibition at 10 µM [1] of 38%, an inhibition at 10 µM [2] of 38.2% and an inhibition at 10 µM [3] of less than 1%. For the same molecule, the inhibition at 10 µM [4] was 23.7%, the inhibition at 10 µM [5] was 15.3% and the inhibition at 10 µM [6] was 16.5%. It also gave an inhibition at 10 µM [7] of 11.8%, an inhibition at 10 µM [8] of 7.88% and an inhibition at 10 µM [9] of 7.72%. For the same molecule, the inhibition at 10 µM [10] was 16.7%, the inhibition at 10 µM [11] was 9.15% and the inhibition at 10 µM [12] was 27.9%. The inhibition at 10 µM [13] was less than 1%, the inhibition at 10 µM [14] was 4.07% and the inhibition at 10 µM [15] was less than 1%. It also gave an inhibition at 10 µM [16] of 20.6%, an inhibition at 10 µM [17] of 2.13% and an inhibition at 10 µM [18] of 35.5%.

Fc1ccc(-c2cn3ccnc3c(-c3ccc4c(c3)ncn4C3CCCCC3)n2)cc1 [Compound 13, 8-(1-cyclohexyl-1H-benzo[d]imidazol-5-yl)-6-(4-fluorophenyl)imidazo[1,2-a]pyrazine] gave an inhibition at 10 µM [1] of 13.2%, an inhibition at 10 µM [2] of 6.16% and an inhibition at 10 µM [3] of less than 1%. It also gave an inhibition at 10 µM [4] of 6.58%, an inhibition at 10 µM [5] of 4.85% and an inhibition at 10 µM [6] of 8.33%. For the same molecule, the inhibition at 10 µM [7] was 5.13%, the inhibition at 10 µM [8] was less than 1% and the inhibition at 10 µM [9] was less than 1%. It also gave an inhibition at 10 µM [10] of less than 1%, an inhibition at 10 µM [11] of less than 1% and an inhibition at 10 µM [12] of 3.57%. The inhibition at 10 µM [13] was less than 1%, the inhibition at 10 µM [14] was less than 1% and the inhibition at 10 µM [15] was less than 1%. The inhibition at 10 µM [16] was 6.3%, the inhibition at 10 µM [17] was 2.9% and the inhibition at 10 µM [18] was less than 1%.

c1cn2cc(-c3ccsc3)nc(-c3ccc4c(c3)ncn4C3CCCCC3)c2n1 [Compound 14, 8-(1-cyclohexyl-1H-benzo[d]imidazol-5-yl)-6-(thiophen-3-yl)imidazo[1,2-a]pyrazine] was tested, and the inhibition at 10 µM [1] was 9.6%, the inhibition at 10 µM [2] was 20.8% and the inhibition at 10 µM [3] was less than 1%. For the same molecule, the inhibition at 10 µM [4] was 15.8%, the inhibition at 10 µM [5] was 18.8% and the inhibition at 10 µM [6] was 9.2%. For the same molecule, the inhibition at 10 µM [7] was 5.01%, the inhibition at 10 µM [8] was less than 1% and the inhibition at 10 µM [9] was 2.82%. For the same molecule, the inhibition at 10 µM [10] was 3.96%, the inhibition at 10 µM [11] was less than 1% and the inhibition at 10 µM [12] was 30.2%. It also gave an inhibition at 10 µM [13] of 3.01%, an inhibition at 10 µM [14] of 6% and an inhibition at 10 µM [15] of less than 1%. It also gave an inhibition at 10 µM [16] of 0.58%, an inhibition at 10 µM [17] of 24.8% and an inhibition at 10 µM [18] of less than 1%.

In the case of c1csc(-c2cn3ccnc3c(-c3ccc4c(c3)ncn4C3CCCCC3)n2)c1 [Compound 22, 8-(1-cyclohexyl-1H-benzo[d]imidazol-5-yl)-6-(thiophen-2-yl)imidazo[1,2-a]pyrazine], the inhibition at 10 µM [1] is reported as less than 1%, the inhibition at 10 µM [2] is reported as less than 1% and the inhibition at 10 µM [3] is reported as less than 1%. The inhibition at 10 µM [4] was less than 1%, the inhibition at 10 µM [5] was 6.48% and the inhibition at 10 µM [6] was less than 1%. For the same molecule, the inhibition at 10 µM [7] was 2.5%, the inhibition at 10 µM [8] was less than 1% and the inhibition at 10 µM [9] was less than 1%. The inhibition at 10 µM [10] was less than 1%, the inhibition at 10 µM [11] was less than 1% and the inhibition at 10 µM [12] was less than 1%. It also gave an inhibition at 10 µM [13] of less than 1%, an inhibition at 10 µM [14] of less than 1% and an inhibition at 10 µM [15] of less than 1%. The inhibition at 10 µM [16] was 13.1%, the inhibition at 10 µM [17] was 1.16% and the inhibition at 10 µM [18] was less than 1%.

c1cn2cc(-c3ccc4c(c3)ncn4C3CCCCC3)nc(-c3ccc4c(c3)ncn4C3CCCCC3)c2n1 [Compound 30, 6,8-bis(1-cyclohexyl-1H-benzo[d]imidazol-5-yl)imidazo[1,2-a]pyrazine] was tested, and the inhibition at 10 µM [1] was 47.2%, the inhibition at 10 µM [2] was 52.2% and the inhibition at 10 µM [3] was less than 1%. For the same molecule, the inhibition at 10 µM [4] was 15.9%, the inhibition at 10 µM [5] was 26% and the inhibition at 10 µM [6] was 28.1%. For the same molecule, the inhibition at 10 µM [7] was 4.85%, the inhibition at 10 µM [8] was 10.4% and the inhibition at 10 µM [9] was 25.4%. It also gave an inhibition at 10 µM [10] of 5.02%, an inhibition at 10 µM [11] of 6.25% and an inhibition at 10 µM [12] of 29.7%. The inhibition at 10 µM [13] was 8.16%, the inhibition at 10 µM [14] was less than 1% and the inhibition at 10 µM [15] was less than 1%. For the same molecule, the inhibition at 10 µM [17] was 20.5% and the inhibition at 10 µM [18] was 5.79%.
